Reference: patent publication US6737383B1, “Herbicidal oxadiazolidines” (priority 1999, dated 2004)

What was measured:
redroot pigweed = assay: Test E redroot pigweed; format: in vivo, Amaranthus retroflexus; settings: Postemergence
Summary of the method: (§1)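 Greenhouse-grown plants are treated (postemergence: 1- to 4-leaf stage, sandy loam/potting mix 60:40), then evaluated visually versus untreated controls some 21 to 28 days later.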

littleseed canarygrass = assay: Test E littleseed canarygrass; format: in vivo, Phalaris minor; settings: Preemergence
common poppy = assay: Test E common poppy; format: in vivo, Papaver rhoeas; settings: Postemergence
Method: (§2) Compounds evaluated in this test were formulated in a non-phytotoxic solvent mixture which included a surfactant and applied to plants that were in the 1- to 4-leaf stage (postemergence application). A mixture of sandy loam soil and greenhouse potting mix in a 60:40 ratio was used for the postemergence test.
(§3) Plantings of these crops and weed species were adjusted to produce plants of appropriate size for the postemergence test. All plant species were grown using normal greenhouse practices. Crop and weed species include annual bluegrass (Poa annua), blackgrass (Alopecurus myosuroides), black nightshade (Solanum nigra), chickweed (Stellaria media), common poppy (Papaver rhoeas), deadnettle (Lamium amplexicaule), downy brome (Bromus tectorum), field violet (Viola arvensis), galium (Galium aparine), green foxtail (Setaria viridis), Italian ryegrass (Lolium multiflorum), jointed goatgrass (Aegilops cylindrica), kochia (Kochia scoparia), lambsquarters (Chenopodium album), littleseed canarygrass (Phalaris minor), rape (Brassica napus), redroot pigweed (Amaranthus retroflexus), Russian thistle (Salsola kali), scentless chamomile (Matricaria inodora), spring barley (Hordeum vulgare), sugar beet (Beta vulgaris), sunflower (Helianthus annuus), ivyleaf speedwell (Veronica hederaefolia), spring wheat (Triticum aestivum), winter wheat (Triticum aestivum), wild buckwheat (Polygonum convolvulus), wild mustard (Sinapis arvensis), wild oat (Avena fatua), windgrass (Apera spica-venti) and winter barley (Hordeum vulgare).
(§4) Treated plants and untreated controls were maintained in a greenhouse for approximately 21 to 28 days, after which all treated plants were compared to untreated controls and visually evaluated. […] A dash response (-) means no test result.

chickweed = assay: Test E chickweed; format: in vivo, Stellaria media; settings: Preemergence
corn = assay: Test C postemergence corn; format: in vivo, Zea mays; settings: 0 to 100 scale, 0 no effect, 100 complete control
Method: (§5) Compounds evaluated in this test were formulated in a non-phytotoxic solvent mixture which included a surfactant and applied to plants that were grown for various periods of time before treatment (postemergence application). A mixture of sandy loam soil and greenhouse potting mix in a 60:40 ratio was used for the postemergence test.
(§6) Plantings of these crops and weed species were adjusted to produce plants of appropriate size for the postemergence test. All plant species were grown using normal greenhouse practices. Crop and weed species include arrowleaf sida (Sida rhombifolia), barnyardgrass (Echinochloa crus-galli), cocklebur (Xanthium strumarium), common ragweed (Ambrosia elatior), corn (Zea mays), cotton (Gossypium hirsutum), eastern black nightshade (Solanum ptycanthum), fall panicum (Panicum dichotomiflorum), field bindweed (Convolvulus arvensis), giant foxtail (Setaria faberii), hairy beggarticks (Bidens pilosa), ivyleaf morningglory (Ipomoea hederacea), johnsongrass (Sorghum halepense), ladysthumb smartweed (Polygonum persicaria), lambsquarters (Chenopodium album), large crabgrass (Digitaria sanguinalis), purple nutsedge (Cyperus rotundus), redroot pigweed (Amaranthus retroflexus), soybean (Glycine max), surinam grass (Brachiaria decumbens), velvetleaf (Abutilon theophrasti) and wild poinsettia (Euphorbia heterophylla).
(§7) Treated plants and untreated controls were maintained in a greenhouse for approximately 14, to 21 days, after which all treated plants were compared to untreated controls and visually evaluated. Plant response ratings, summarized in Table C, were based upon a 0 to 100 scale where 0 was no effect and 100 was complete control. A dash response (−) means no test result.

field violet = assay: Test E field violet; format: in vivo, Viola arvensis; settings: Postemergence
Summary of the method: as §1

sunflower = assay: Test E sunflower; format: in vivo, Helianthus annuus; settings: Postemergence
Summary of the method: as §1

downy brome = assay: Test E downy brome; format: in vivo, Bromus tectorum; settings: Postemergence; for Plant response rating, Downy brome: 0 to 100 scale
Summary of the method: as §1

green foxtail = assay: Test E green foxtail; format: in vivo, Setaria viridis; settings: Postemergence
Method: as §2, §3, §4

soybean = assay: Test C postemergence soybean; format: in vivo, Glycine max; settings: 0 to 100 scale, 0 no effect, 100 complete control
Method: as §5, §6, §7

sugar beet = assay: Test E sugar beet; format: in vivo, Beta vulgaris; settings: Preemergence
spring wheat = assay: Test E spring wheat; format: in vivo, Triticum aestivum; settings: Postemergence
Summary of the method: as §1

windgrass = assay: Test E windgrass; format: in vivo, Apera spica-venti; settings: Preemergence
large crabgrass = assay: Test C postemergence large crabgrass; format: in vivo, Digitaria sanguinalis; settings: 0 to 100 scale, 0 no effect, 100 complete control
Method: as §5, §6, §7

lambsquarters = assay: Test E lambsquarters; format: in vivo, Chenopodium album; settings: Postemergence
Method: as §2, §3, §4

field bindweed = assay: Test C postemergence field bindweed; format: in vivo, Convolvulus arvensis; settings: 0 to 100 scale, 0 no effect, 100 complete control
Method: as §5, §6, §7

morningglory = assay: Test A morningglory; format: in vivo, Ipomoea spp.; settings: 0 to 10 scale where 0 is no effect and 10 is complete control
Summary of the method: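 Injury scored visually after about eleven greenhouse days against untreated plants, 0 = no effect, 10 = complete control. Compounds, formulated in surfactant-containing non-phytotoxic solvent, were applied as preemergence soil drench to sandy loam plantings and as postemergence runoff spray at the 1–2 leaf stage.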

[1] = Rate 250 g/ha, 0 to 100 scale (0 no effect, 100 complete control)
[2] = Rate 62 g/ha, 0 to 100 scale, 0 no effect, 100 complete control
[3] = Rate 125 g/ha, 0 to 100 scale (0 no effect, 100 complete control)

CCn1c(=O)on(C(=O)N(c2ccc(F)cc2)C(C)C)c1=O [Compound 107]
Plant response rating, Redroot pigweed (redroot pigweed; Rate 62 g/ha, 0 to 100 scale): 20
Plant response rating, Redroot pigweed (redroot pigweed; Rate 125 g/ha, 0 to 100 scale): 10
Plant response rating, Redroot pigweed (redroot pigweed; [1]): 20
Plant response rating, LS canarygrass (littleseed canarygrass; [2]): 50
Plant response rating, LS canarygrass (littleseed canarygrass; [3]): 80
Plant response rating, LS canarygrass (littleseed canarygrass; Rate 250 g/ha, 0 to 100 scale): 80
Plant response rating, Common poppy (common poppy; Rate 62 g/ha, 0 to 100 scale): 0
Plant response rating, Comnion poppy (common poppy; Rate 125 g/ha, 0 to 100 scale): 0
Plant response rating, Common poppy (common poppy; [1]): 5
Plant response rating, Chickweed (chickweed; [2]): 80
Plant response rating, Chickweed (chickweed; [3]): 50
Plant response rating, Chickweed (chickweed; Rate 250 g/ha, 0 to 100 scale): 50
Plant response rating, Corn (corn; Rate 140 g/ha): 0
Plant response rating, Corn (corn; Rate 280 g/ha): 5
Plant response rating, Corn (corn; Rate 560 g/ha): 55
Plant response rating, Corn (corn; Rate 1120 g/ha): 60
Plant response rating, Field violet (field violet; Rate 62 g/ha, 0 to 100 scale): 0
Plant response rating, Field violet (field violet; Rate 125 g/ha, 0 to 100 scale): 25
Plant response rating, Field violet (field violet; [1]): 0
Plant response rating, Sunflower (sunflower; Rate 62 g/ha, 0 to 100 scale): 10
Plant response rating, Sunflower (sunflower; Rate 125 g/ha, 0 to 100 scale): 20
Plant response rating, Sunflower (sunflower; [1]): 30
Plant response rating, Downy brome (downy brome; Rate 62 g/ha): 0
Plant response rating, Downy brome (downy brome; Rate 125 g/ha): 10
Plant response rating, Downy brortie (downy brome; [1]): 0
Plant response rating, Green foxtail (green foxtail; Rate 62 g/ha, 0 to 100 scale): 20
Plant response rating, Green foxtail (green foxtail; Rate 125 g/ha, 0 to 100 scale): 30
Plant response rating, Green foxtail (green foxtail; [1]): 85
Plant response rating, Soybean (soybean; Rate 140 g/ha): 45
Plant response rating, Soybean (soybean; Rate 280 g/ha): 70
Plant response rating, Soybean (soybean; Rate 560 g/ha): 85
Plant response rating, Soybean (soybean; Rate 1120 g/ha): 85
Plant response rating, Sugar beet (sugar beet; [2]): 70
Plant response rating, Sugar beet (sugar beet; [3]): 100
Plant response rating, Sugar beet (sugar beet; Rate 250 g/ha, 0 to 100 scale): 100
Plant response rating, Spring Wheat (spring wheat; Rate 62 g/ha, 0 to 100 scale): 0
Plant response rating, Spring Wheat (spring wheat; Rate 125 g/ha, 0 to 100 scale): 5
Plant response rating, Spring Wheat (spring wheat; [1]): 10
Plant response rating, Windgrass (windgrass; [2]): 100
Plant response rating, Windgrass (windgrass; [3]): 100
Plant response rating Large crabgrass (large crabgrass; Rate 140 g/ha): 70
Plant response rating Large crabgrass (large crabgrass; Rate 280 g/ha): 85
Plant response rating Large crabgrass (large crabgrass; Rate 560 g/ha): 95
Plant response rating Large crabgrass (large crabgrass; Rate 1120 g/ha): 95
Plant response rating, Lambsquarters (lambsquarters; Rate 62 g/ha, 0 to 100 scale): 15
Plant response rating, Lambsquarters (lambsquarters; Rate 125 g/ha, 0 to 100 scale): 15
Plant response rating, Lambsquarters (lambsquarters; [1]): 5
Plant response rating Field bindweed (field bindweed; Rate 140 g/ha): 0
Plant response rating Field bindweed (field bindweed; Rate 280 g/ha): 0
Plant response rating Field bindweed (field bindweed; Rate 560 g/ha): 30
Plant response rating Field bindweed (field bindweed; Rate 1120 g/ha): 60

CCOC(=O)Cn1c(=O)on(C(=O)N(c2ccc(F)cc2)C(C)C)c1=O [Compound 128]
Plant response rating, Morningglory (morningglory; Postemergence, Rate 1000 g/ha): 0
Plant response rating, Morningglory (morningglory; Pre-emergence, Rate 2000 g/ha): 0

Cc1ccccc1Cn1c(=O)on(C(=O)N(c2ccc(Cl)cc2)C(C)C)c1=O [Compound 136]
Plant response rating, Morningglory (morningglory; Postemergence, Rate 1000 g/ha): 9
Plant response rating, Morningglory (morningglory; Pre-emergence, Rate 2000 g/ha): 0
